Where a name gives a salt, the structure may show the parent alone.
system: PMS1; assay: Mini-Gene Reporter Assay—PMS1 (firefly luciferase mini-gene reporter transiently transfected into HEK293 cells); type: cell-based; conditions: Homo sapiens; mini-gene firefly luciferase reporter in HEK293 cells
Method in brief: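 HEK293 cells transiently transfected with a mini-gene construct (skipped exon with flanking introns/exons fused to firefly luciferase, pcDNA3.1) are incubated with compounds in duplicate. Exon inclusion raises luminescence; EC50 fitted by Levenberg-Marquardt; effect also scored at 5 μM.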

Row | SMILES | IC50
1 | Cc1cn2cc(C(=O)Nc3ccc(N4CCN[C@@H](C)C4)nn3)c(OCC(F)(F)F)cc2n1 [Compound 216, (S)-2-methyl-N-(6-(3-methylpiperazin-1-yl)pyridazin-3-yl)-7-(2,2,2-trifluoroethoxy)imidazo[1,2-a]pyridine-6-carboxamide] | < 1 µM
2 | CCOc1cc2nc(C)cn2cc1C(=O)Nc1ccc(N2CCN[C@@H](C)C2)nn1 [Compound 217, (S)-7-ethoxy-2-methyl-N-(6-(3-methylpiperazin-1-yl)pyridazin-3-yl)imidazo[1,2-a]pyridine-6-carboxamide HCl Salt] | < 1 µM
3 | Cc1cn2cc(C(=O)Nc3ccc(N4CCN[C@@H](C)C4)nn3)c(OC3CCCOC3)cc2n1 (stereo partly drawn) [Compound 218, 2-methyl-N-(6-((S)-3-methylpiperazin-1-yl)pyridazin-3-yl)-7-((tetrahydro-2H-pyran-3-yl)oxy)imidazo[1,2-a]pyridine-6-carboxamide] | 1 to 10 µM
4 | Cc1cn2cc(C(=O)Nc3ccc(N4CCNC(C)(C)C4)nn3)c(OC3CCC3)cc2n1 [Compound 219, 7-cyclobutoxy-N-(6-(3,3-dimethylpiperazin-1-yl)pyridazin-3-yl)-2-methylimidazo[1,2-a]pyridine-6-carboxamide] | < 1 µM
5 | CCOc1cc2nn(C)cc2cc1C(=O)Nc1ccc(N2CCNC(C)(C)C2)nn1 [Compound 220, N-(6-(3,3-dimethylpiperazin-1-yl)pyridazin-3-yl)-6-ethoxy-2-methyl-2H-indazole-5-carboxamide hydrochloride] | < 1 µM
6 | CCOc1cc2nc(C)cn2cc1C(=O)Nc1ccc(N2CCNC(C)(C)C2)nn1 [Compound 221, N-(6-(3,3-dimethylpiperazin-1-yl)pyridazin-3-yl)-7-ethoxy-2-methylimidazo[1,2-a]pyridine-6-carboxamide hydrochloride] | < 1 µM
7 | CCOc1cc2nn(C)cc2cc1C(=O)Nc1cc(C)c(N2CCN[C@@H](C)C2)nn1 [Compound 222, (S)-6-ethoxy-2-methyl-N-(5-methyl-6-(3-methylpiperazin-1-yl)pyridazin-3-yl)-2H-indazole-5-carboxamide hydrochloride] | 1 to 10 µM
8 | CCOc1nc2nc(C)cn2cc1C(=O)Nc1ccc(N2CCN[C@@H](C)C2)nn1 [Compound 224, (S)-7-ethoxy-2-methyl-N-(6-(3-methylpiperazin-1-yl)pyridazin-3-yl)imidazo[1,2-a]pyrimidine-6-carboxamide hydrochloride] | < 1 µM
9 | CCOc1nc2nn(C)cc2cc1C(=O)Nc1ccc(N2CCN[C@@H](C)C2)nn1 [Compound 225, (S)-6-ethoxy-2-methyl-N-(6-(3-methylpiperazin-1-yl)pyridazin-3-yl)-2H-pyrazolo[3,4-b]pyridine-5-carboxamide hydrochloride] | < 1 µM
10 | CCOc1cc2nc(C)cn2cc1C(=O)Nc1ccc(N2CCC(NC)CC2)nn1 [Compound 226] | 1 to 10 µM
11 | CCOc1cc2nc(C)cn2cc1C(=O)Nc1ccc(N2CC(C3CCNC3)C2)nn1 (centres unmarked) [Compound 227] | 1 to 10 µM
12 | CCOc1cc2nc(C)cn2cc1C(=O)Nc1ccc(N2CCNC(CC(F)F)C2)nn1 (centres unmarked) [Compound 228] | < 1 µM
13 | CCOc1cc2nc(C)cn2cc1C(=O)Nc1ccc(N2CC3=C(CNC3)C2)nn1 [Compound 229] | < 1 µM
14 | CCOc1cc2nc(C)cn2cc1C(=O)Nc1ccc(N2CCNCC3(CC3)C2)nn1 [Compound 230] | 1 to 10 µM
15 | CCOc1cc2nc(C)cn2cc1C(=O)Nc1ccc(N2CCNC(CC(F)(F)F)C2)nn1 (centres unmarked) [Compound 231] | 1 to 10 µM
16 | CCOc1cc2nc(C)cn2cc1C(=O)Nc1ccc(N2CCC(CNC(C)C)CC2)nn1 [Compound 232] | 1 to 10 µM
17 | CCOc1cc2nc(C)cn2cc1C(=O)Nc1ccc(N2CCC(C3CCCN3)C2)nn1 (centres unmarked) [Compound 233] | 1 to 10 µM
18 | CCOc1cc2nc(C)cn2cc1C(=O)Nc1ccc(N2CC3C4CCC(NC4)C3C2)nn1 (centres unmarked) [Compound 235] | 1 to 10 µM
19 | CCOc1cc2nc(C)cn2cc1C(=O)Nc1ccc(N2CCC3CCCC(C2)N3)nn1 (centres unmarked) [Compound 236] | 1 to 10 µM
20 | CCOc1cc2nc(C)cn2cc1C(=O)Nc1ccc(N2CC3CCC2C2CNCC32)nn1 (centres unmarked) [Compound 237] | 1 to 10 µM

Source: patent US20250066389A1, “HETEROCYCLIC AMIDES AND METHODS OF USING THE SAME” (Rgenta Therapeutics, Inc., priority 2021, published 2025)
